For orientation: IC50 means the midpoint of a concentration-inhibition curve.

The target of assay [1] is T1, human chemokine receptor 2 isoform B (Homo sapiens, UniProt P41597).
T1 construct: host or cells: CHOK1-CCR2B-A5 (CHO-K1)
T1 sequence (P41597 1-360 isoform P41597-2): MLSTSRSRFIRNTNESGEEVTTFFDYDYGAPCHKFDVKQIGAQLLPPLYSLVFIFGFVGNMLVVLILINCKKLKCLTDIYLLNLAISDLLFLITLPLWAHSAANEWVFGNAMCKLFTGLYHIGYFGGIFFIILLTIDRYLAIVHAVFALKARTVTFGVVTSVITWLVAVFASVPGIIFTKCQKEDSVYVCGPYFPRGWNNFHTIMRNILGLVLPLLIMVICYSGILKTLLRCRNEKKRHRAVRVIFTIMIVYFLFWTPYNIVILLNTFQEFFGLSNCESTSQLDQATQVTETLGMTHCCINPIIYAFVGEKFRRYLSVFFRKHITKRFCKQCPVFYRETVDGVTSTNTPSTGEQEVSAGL
The assay can be described thus: Calcium mobilization assay (FLIPR, CHOK1-CCR2B-A5 cells, 20 nM MCP-1). Format: cell-based. To be noted: Ca mobilisation assay, CCR2, antagonist activity vs 20 nM MCP-1. The essentials: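 Antagonism read as IC50 against 20 nM MCP-1-evoked calcium rise (peak minus baseline Fluo-4 signal, FLIPR) in CCR2B-overexpressing CHO-K1 cells. Compounds were preincubated 20-30 min at 30 °C, with agonist activity recorded for 80 s on addition.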

The target in the next assay is T2, CCR2 (Homo sapiens, UniProt P41597).
T2 construct: endogenous in cells; host or cells: THP1-4x cells
T2 sequence (P41597 1-360 isoform P41597-2): T1 sequence (P41597 1-360 isoform P41597-2)
The assay can be described thus: Chemotaxis assay (THP1-4x cells, migration towards 10 nM MCP-1). Format: cell-based. To be noted: inhibition of specific migration towards MCP-1. How it is done: The chemotaxis assay was performed with THP1-4x cells (Mirzadegan et al. 2000, The Journal of Biological Chemistry 275, 33, 25562-25571) similar as described earlier (Kruszynski et al. 2005, Journal of Peptide Science, in press.).
THP1-4x were cultured in RPMI1640, 2 mM L-glutamine, 0.15% Na-bicarbonat, 0.25% D-glucose, 10 mM Hepes, […] Na-pyruvate, […] β-mercaptoethanol, 10% FBS. Isolated cells were labelled in culture medium with 2.5 μg/ml calcein-AM (Molecular Probes) for 60 minutes at 37° C. Excess calcein was removed and cells were washed in D-PBS^++, 2% FBS.
Cells (1×10^5) with or without various concentrations of test compounds were loaded on the top of 8-μm polycarbonate filter in a 96-well-modified Boyden chamber (NeuroProbe). Beneath the filter 10 nM MCP-1 (R&D Systems; Roche) with or without test compounds or D-PBS^++, 2% FBS was placed in the corresponding well. The closed chambers were incubated for 1 hour at 37° C., 5% CO2. Remaining cells in the top compartment were wiped off and migrated cells were measured as fluorescence in the bottom compartment in a FLUOstar (Galaxy BMG) at 485 nm excitation and 530 nm emission. Specific migration is defined as total migration towards MCP-1 minus the background migration towards D-PBS^++, 2% FBS. The ability of test compounds to antagonize CCR2-chemotaxis is reported as concentration required to inhibit 50% of specific migration (IC50) towards MCP-1.

For `O=C1NC(=O)C2(CCN(CCCN3CCN(C(=O)/C=C/c4ccc(Cl)c(Cl)c4)CCC3=O)CC2)N1` [Example 48, 8-(3-{4-[(E)-3-(3,4-Dichloro-phenyl)-acryloyl]-7-oxo-[1,4]diazepan-1-yl}-propyl)-1,3,8-triaza-spiro[4.5]decane-2,4-dione], the results for the IC50 (in assay [1]; against CCR2) were 0.064 µM and 0.013 µM, respectively. Taken in the same sequence, the figures for `O=C(/C=C/c1ccc(Cl)c(Cl)c1)N1CCC(=O)N(CCCN2CCCC(O)C2)CC1` (racemic) [Example 81, (+/−)-1-[(E)-3-(3,4-Dichloro-phenyl)-acryloyl]-4-[3-(3-hydroxy-piperidin-1-yl)-propyl]-[1,4]diazepan-5-one] were 0.204 µM and 0.071 µM. Taken in the same sequence, the figures for `O=C(/C=C/c1ccc(Cl)c(Cl)c1)N1CCC(=O)N(CCCN2CCC(O)(c3ccccc3)CC2)CC1` [Example 59, 1-[(E)-3-(3,4-Dichloro-phenyl)-acryloyl]-4-[3-(4-hydroxy-4-phenyl-piperidin-1-yl)-propyl]-[1,4]diazepan-5-one] were 0.014 µM and 0.077 µM. On the same counts, the results for `O=C(/C=C/c1ccc(Cl)c(Cl)c1)N1CCC(=O)N(CCN2CCCC2)CC1` [Example 160, 1-[(E)-3-(3,4-Dichloro-phenyl)-acryloyl]-4-(2-pyrrolidin-1-yl-ethyl)-[1,4]diazepan-5-one] are 0.232 µM and 0.101 µM. For the molecule `O=C(/C=C/c1ccc(Cl)c(Cl)c1)N1CCC(=O)N(CCNC2CCCC2)CC1` [Example 108, 4-[3-(Cyclopentyl-amino)-ethyl]-1-[(E)-3-(3,4-dichloro-phenyl)-acryloyl]-[1,4]diazepan-5-one], the IC50 in assay [1] stood at 1.2 µM.
